The values that follow come from US20150307519A1, “SMALL MOLECULES FOR RESTORING FUNCTION TO P53 CANCER MUTANTS” (THE REGENTS OF THE UNIVERSITY OF CALIFORNIA, priority 2014, published 2015).

For data set [1], the target named is T1, WT DBD (wild-type p53 DBD protein) (Homo sapiens, UniProt P04637).
T1 construct: wild-type p53 protein DBD protein (residues 94-312 of the full length); made in house; host or cells: Escherichia coli Rosetta 2 (DE3), vector pSE420
Description: DSF thermal stabilization of WT DBD. The class given is binding. To be noted: DSF assay. Here is the method: (§1) To determine whether this stabilization was specific for copper, NSC319725 was also tested after addition of Fe(II)Cl2 and ZnCl2. […] NSC635448, […] were also tested for stabilization of G245S DBD and WT DBD in the DSF assay, yielding analogous results.
(§2) An equivalent volume of DMSO was used as a control. […] Sypro Orange stain (Bio-Rad, Hercules, Calif.) at 5,000× stock concentration was diluted to 5× concentration in 20 mM HEPES at pH 7.4 and added to each well of a 96-well plate. All SLS compounds were independently measured for fluorescence background to eliminate false positive results. […] All DSF assays were performed with a Touch RT-PCR system CFX96 (Bio-Rad) with the starting temperature of 4° C. by increasing the temperature of the plate 1.0° C. per min to 94° C. Fluorescence measurements were taken once every minute during all experiments. Tm values for each well, mean Tm values, and 95% confidence intervals were calculated with the program Prism 5 (GraphPad Software, La Jolla, Calif.) by fitting the raw fluorescence data to a Boltzmann sigmoidal curve.

In data set [2] the test system is Saos-2 cells expressing p53^G245S. Description: Cell count / viability of Saos-2 cells with doxycyclin-inducible p53 G245S. To be noted: FIGS. 5A-5C; for p53 G245S-dependent cancer cell cytotoxicity: 27 hours. The class given is cell-based. The text has this:
ACS chemical biology, doi:10.1021/cb3005929 (2013).

The next data set addresses T2, G245S DBD (Homo sapiens, UniProt P04637, G245S).
T2 construct: wild-type p53 protein DBD protein (residues 94-312 of the full length)
In words: DSF thermal stabilization of G245S DBD. The note with it: DSF assay. The class given is binding. The procedure: as §1, §2
In general terms: DSF heats the sample and reads unfolding from a dye or from intrinsic fluorescence.

Take `C/C(=N\NC(=S)N(C)C)c1ccccn1` [NSC319725, reference compound]: the “effect on Tm of WT DBD (qualitative)” value in data set [1] is reported as “no effect or a slight destabilization”. For the same molecule, the “p53 G245S-dependent cancer cell cytotoxicity” value in data set [2] is listed as “marked”. Also, the “effect on Tm of G245S DBD (qualitative)” value on G245S DBD is on record as “no effect or a slight destabilization”.

As for `Cn1ncc2c(Nc3ccc(Br)cc3)nc(Nc3ccc(Br)cc3)nc21` [NSC11667], in data set [2], the “reactivation of p53^G245S in cells” value is on record as “marked efficacy”.

For the molecule `NS(=O)(=O)c1nc2nc[nH]c(=O)c2[nH]1` [NSC635448], the “effect on Tm of WT DBD (qualitative)” value in data set [1] is recorded as “increased the Tm”. Moreover, in data set [2], the “p53 G245S-dependent cancer cell cytotoxicity” value is reported as “marked” and the “reactivation of p53^G245S in cells” value is listed as “marked efficacy”. Besides, the “effect on Tm of G245S DBD (qualitative)” value on G245S DBD is listed as “increased the Tm”.
